The target of test [1] is Adenosine receptors; A1 & A3 (Homo sapiens) (UniProt P30542+P0DMS8). Description: Selectivity ratio of adenosine A3 receptor (unknown origin) over adenosine A1 receptor (unknown origin).
In test [2] the target is T1, Adenosine receptor A3 (Homo sapiens, UniProt P0DMS8).
T1 sequence (P0DMS8 whole entry): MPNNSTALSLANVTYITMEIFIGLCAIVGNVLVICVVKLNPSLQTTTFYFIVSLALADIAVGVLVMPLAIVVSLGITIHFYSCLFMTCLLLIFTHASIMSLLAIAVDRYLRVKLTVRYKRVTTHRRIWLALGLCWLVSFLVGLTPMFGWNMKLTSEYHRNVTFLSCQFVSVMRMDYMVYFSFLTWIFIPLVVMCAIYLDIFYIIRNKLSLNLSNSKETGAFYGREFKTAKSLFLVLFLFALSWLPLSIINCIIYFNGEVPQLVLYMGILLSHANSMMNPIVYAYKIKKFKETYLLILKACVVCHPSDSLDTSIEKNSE
Description: Agonist activity at adenosine A3 receptor (unknown origin) assessed as stimulation of [35S]GTPgammaS binding. Type of test: functional. (GTPγS resists hydrolysis and so accumulates on activated G proteins.)

The target of test [3] is T1, Adenosine receptor A3. Description: Binding affinity to adenosine A3 receptor (unknown origin).

pEC50, pKi: −log10 of the molar value.

Turning to `CNC(=O)[C@@]12C[C@@H]1[C@@H](n1cnc3c(NC)nc(Cl)nc31)[C@H](O)[C@@H]2O`, the Selectivity ratio in test [1] was 130.
Still for that read-out and setting: then `CNc1ncnc2c1ncn2[C@H]1[C@H](O)[C@H](O)[C@]2(CO)C[C@H]12`, with 12.
The same measure, in the same setting: then `CNc1nc(Cl)nc2c1ncn2[C@H]1[C@H](O)[C@H](O)[C@]2(CO)C[C@H]12`, with 39.
For the compound `OC[C@@]12C[C@@H]1[C@@H](n1cnc3c(NCc4cccc(I)c4)ncnc31)[C@H](O)[C@@H]2O`, the pEC50 (in general, the EC50 on a negative log10 scale, so that one unit is a factor of ten) on Adenosine receptor A3 [2] was > 9.00.
With `O=P(O)(OC[C@@]12C[C@@H]1[C@@H](n1cnc3c(O)ncnc31)[C@H](O)[C@@H]2O)OP(=O)(O)OC[C@@]12C[C@@H]1[C@@H](n1cnc3c(O)ncnc31)[C@H](O)[C@@H]2O`, at Adenosine receptor A3 [3], the pKi – broadly, the Ki on a negative log10 scale, so that one unit is a factor of ten – was 4.66.
With `OC[C@@]12C[C@@H]1[C@@H](n1cnc3c(NCc4cccc(I)c4)nc(Cl)nc31)[C@H](O)[C@@H]2O`, the pEC50 on Adenosine receptor A3 [2] is > 9.00.

The record behind these values is ChEMBL document CHEMBL3217405, “Methanocarba ring as a ribose modification in ligands of G protein-coupled purine and pyrimidine receptors: synthetic approaches” (Medchemcomm, 2013).
